Patent EP0476645B1, “Calcium uptake inhibitors” (MERRELL DOW PHARMACEUTICALS INC., priority 1990, dated 1992)

Test system: Rat PMNL
Test: Measurement of intracellular calcium in fMLP-stimulated PMNL preloaded with Fura-2
Type: cell-based
Details: fMLP stimulus, preincubation with compound 15 minutes at 37°C, concentrations in figure 1
Procedure: Rat PMNL were obtained from exudates resulting from peritoneal injection of 6 mL of 8% sodium caseinate. Eighteen hours after injection rats were killed by carbon dioxide inhalation and the peritoneal cavity lavaged with Hank's balanced salt solution (HBSS). After concentration of the PMNL by centrifugation, contaminating erythrocytes were removed by hypotonic lysis. The PMNL were then washed twice by centrifugation (400 x g for 10 minutes) and resuspended in HBSS. Cell viability was greater than 90% by Trypan Blue exclusion and greater than 90% of the cells were PMNL by Wright-Giemsa stain.
Intracellular calcium levels were obtained using Fura-2 as fluorescent indicator (Grynkiewicz et al., 1985). Fura-2 was loaded into PMNL as the acetoxymethyl ester (Fura-2/AM) using the method of Korchak et al., (1988). Specifically, 1 X 10⁸ PMNL/mL were incubated in HBSS with 10 µM Fura-2/AM for 10 minutes at 37°C. The cells suspension was then diluted ten fold with HBSS and further incubated for another 20 minutes. The cells were then centrifuged (400 x g for 8 minutes at 25°C) and the PMNL (1 x 10⁷ cells/mL) resuspended in HBSS containing 1% bovine serum albumin. Cells were stored at room temperature and used within 3 hours.
Intracellular calcium level determinations were made using a dual wavelength spectrofluorometer (Photon Technology International, New Brunswick, NJ). Two mL of PMNL suspension (1 x 10⁷ cells/mL) were stirred magnetically at 37°C. Cells were preincubated with the compounds for 15 minutes at 37°C prior to activation. Where compounds were dissolved in DMSO and added directly, the DMSO never exceeded 0.3% in the final cell suspension. Total change in volume with addition of compounds or vehicle and stimuli never exceeded 3%. Intracellular calcium concentrations were calibrated by setting a maximum calcium level in the cells with the addition of 7 µM ionomycin to PMNL in HBSS containing 1% BSA. This was followed by treatment with 20 mM EGTA for 1 hour to obtain a minimum calcium level. […]

With `CN(C)c1ccc(C(=O)C#Cc2ccncn2)cc1` [MDL 102,387, 1-(4-dimethylaminophenyl)-3-(4-pyrimidinyl)-2-propyne-1-one] the “suppression of the second wave of intracellular calcium changes” value was “selective concentration-dependent suppression”.
